Laboratory results taken from ChEMBL document CHEMBL4828773, “Novel HDAC1 and HDAC2 Inhibitors for Treating Diseases” (ACS Med Chem Lett, 2021).

Columns and labels:
Histone deacetylase 1 = Histone deacetylase 1 (Homo sapiens, UniProt Q13547); assay: Inhibition of HDAC1 (unknown origin) preincubated for 10 mins followed by tripeptide substrate addition and measured after 60 mins by fluorescence microplate reader assay
Histone deacetylase 2 = Histone deacetylase 2 (Homo sapiens, UniProt Q92769); assay: Inhibition of human HDAC2 preincubated for 10 mins followed by tripeptide substrate addition and measured after 60 mins by fluorescence microplate reader assay
Histone deacetylase 2, sequence (Q92769 whole entry): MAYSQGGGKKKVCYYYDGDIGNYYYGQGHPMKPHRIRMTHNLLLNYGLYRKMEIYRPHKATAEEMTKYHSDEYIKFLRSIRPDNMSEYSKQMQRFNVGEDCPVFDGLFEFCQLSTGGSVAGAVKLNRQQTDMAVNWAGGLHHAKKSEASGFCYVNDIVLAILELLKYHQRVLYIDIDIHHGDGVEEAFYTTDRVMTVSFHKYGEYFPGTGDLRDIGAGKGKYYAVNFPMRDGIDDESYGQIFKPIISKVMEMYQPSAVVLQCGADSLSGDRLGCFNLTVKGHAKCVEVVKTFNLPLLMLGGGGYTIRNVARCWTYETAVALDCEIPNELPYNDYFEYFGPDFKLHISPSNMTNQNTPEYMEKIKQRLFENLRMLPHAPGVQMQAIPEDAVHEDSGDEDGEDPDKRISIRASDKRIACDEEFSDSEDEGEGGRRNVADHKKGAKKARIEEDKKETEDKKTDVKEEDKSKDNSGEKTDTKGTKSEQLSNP

Histone deacetylase 1, sequence (Q13547 whole entry): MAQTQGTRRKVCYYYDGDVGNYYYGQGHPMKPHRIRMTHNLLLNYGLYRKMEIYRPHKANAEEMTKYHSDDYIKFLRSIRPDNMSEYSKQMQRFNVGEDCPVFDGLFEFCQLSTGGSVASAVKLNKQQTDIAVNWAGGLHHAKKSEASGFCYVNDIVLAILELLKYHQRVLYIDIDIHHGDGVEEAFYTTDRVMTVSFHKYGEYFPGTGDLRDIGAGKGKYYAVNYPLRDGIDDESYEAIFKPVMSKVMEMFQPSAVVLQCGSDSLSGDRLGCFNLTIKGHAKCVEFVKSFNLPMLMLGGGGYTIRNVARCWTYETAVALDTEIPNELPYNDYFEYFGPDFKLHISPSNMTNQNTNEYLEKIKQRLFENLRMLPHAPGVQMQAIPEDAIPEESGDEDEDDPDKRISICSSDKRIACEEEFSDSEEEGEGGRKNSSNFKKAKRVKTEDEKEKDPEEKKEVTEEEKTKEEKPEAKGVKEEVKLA

| IC50 (Histone deacetylase 1) [nM] | IC50 (Histone deacetylase 2) [nM] | SMILES |
| --- | --- | --- |
| 1 | 5 | Nc1ccc(-c2cccs2)cc1NC(=O)c1ccc2c(c1)CC(=O)N2CCCN1CCOCC1 |
| – | 5 | CN(C)CCNc1ccc2cc(C(=O)Nc3cc(-c4cccs4)ccc3N)ncc2c1 |
| 1 | 10 | Nc1ccc(-c2ccccc2)cc1NC(=O)c1ccc2c(c1)ncn2CCN1CCOCC1 |
| – | 15 | CN(C)CCN(C)c1ccc2cc(C(=O)Nc3cc(-c4cccs4)ccc3N)cnc2c1 |
| 5 | 10 | CN1C(=O)Cc2cc(C(=O)Nc3cc(-c4cccs4)ccc3N)ccc21 |

| SMILES | IC50 (Histone deacetylase 1) [nM] | IC50 (Histone deacetylase 2) [nM] |
| --- | --- | --- |
| Nc1ccc(-c2cccs2)cc1NC(=O)c1ccc2c(c1)CC(=O)N2CCN1CCOCC1 | 1 | 5 |
